Structures are written as SMILES. Bounds are passed on as bounds.

This test deals with T1, recombinant human DPP-1 (Cathepsin C) (Homo sapiens, UniProt P53634).
T1 construct: made in house
T1 sequence (P53634 25-463): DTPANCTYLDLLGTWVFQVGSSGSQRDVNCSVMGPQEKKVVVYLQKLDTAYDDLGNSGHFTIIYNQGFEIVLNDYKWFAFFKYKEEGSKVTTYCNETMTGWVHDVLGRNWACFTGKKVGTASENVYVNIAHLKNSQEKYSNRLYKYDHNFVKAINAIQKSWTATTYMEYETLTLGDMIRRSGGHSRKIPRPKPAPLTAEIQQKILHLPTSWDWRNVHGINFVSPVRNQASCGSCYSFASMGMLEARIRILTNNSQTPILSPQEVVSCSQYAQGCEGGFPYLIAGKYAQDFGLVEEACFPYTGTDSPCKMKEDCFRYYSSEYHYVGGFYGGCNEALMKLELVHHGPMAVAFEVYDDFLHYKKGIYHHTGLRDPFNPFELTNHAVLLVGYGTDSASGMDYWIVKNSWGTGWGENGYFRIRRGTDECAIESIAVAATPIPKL
Description: DPP-1 Inhibition Assay (in vitro), fluorogenic substrate GR-AMC. The class given is biochemical. As to conditions: 0.15 nM DPP-1, 10 uM GR-AMC, pH 7.0, room temperature; average value where tested multiple times. The procedure: Test compounds were assessed for DPP-1 (Cathepsin C) inhibitory activity using a fluorogenic substrate, GR-AMC (Glycine-Arginine-amino-4-methylcoumarin, Bachem, 1-1215). The amount of amino-methylcoumarin released is proportional to the DPP-1 activity, and the reaction is monitored kinetically with a Molecular Devices plate reader using black 96-well plates.
All compounds were tested under room temperature conditions. The assay buffer consisted of 50 mM HEPES, pH 7.0, 100 mM NaCl, 2 mM glutathione (GSH), and 0.002% TWEEN 20. GSH and TWEEN 20 were added to the buffer fresh daily. Just prior to use, an in-house preparation of recombinant human DPP-1 (240 μM stock, MW 49.6 kD) was diluted 600-fold in assay buffer containing fresh 2 mM dithiothreitol (DTT) to activate the enzyme, then diluted into assay buffer (without DTT) 133-fold for a DPP-1 working solution of 3 nM. Test compounds were diluted in DMSO for 20× their final assay concentrations.
Additions to a 96-well black Costar 3915 plates were as follows: 90 μL of 11 μM GR-AMC, 5 μL test compound (followed by mixing), and 5 μL 3 nM DPP1 to start the reaction. Fluorescent reactions were monitored kinetically at 360 nm excitation, 440 nm emission on a Molecular Devices Spectramax XPS reader. The Softmax Pro software of the reader determined the initial velocity of the selected data (the first 3-5 minutes of the reaction), and the best linear regression fit of the initial kinetic data. Final assay conditions were 0.15 nM DPP-1, 10 uM GR-AMC, 50 mM HEPES, pH 7.0, 100 mM NaCl, 2 mM GSH, 0.002% TWEEN 20, 1 uM DTT, 5.0% DMSO. Initial velocity rates were plotted vs. test compound concentration by use of a four-parameter logistics equation (nonlinear regression, sigmoidal dose-response (variable slope), with fixed Hill (1.0) using GraphPad Prism® software for determination of DPP-1 IC50. Within-run assay coefficient of variation (CV) was generally <10%; between-run CV <20%.
Representative compounds of the present invention were tested according to the procedure as described above, with results as listed in Table 12, below.
One may read the IC50 as the concentration that gives 50% inhibition. For `CC[C@H](N)C(=O)NCCCc1cc2cc(C(=O)Nc3cnc4ccccc4c3)ccc2o1` [Compound 64], the IC50 amounted to 350 nM.
In the case of `CC[C@H](N)C(=O)NCCCc1cc2cc(C(=O)Nc3cccc4cnccc34)ccc2o1` [Compound 65], the IC50 stood at 480 nM.
The same measure for `CC[C@H](N)C(=O)NCCCc1cc2cc(C(=O)Nc3cccc4cccnc34)ccc2o1` [Compound 66]: 910 nM.
In the case of `CC[C@H](N)C(=O)NCCCc1cc2cc(C(=O)Nc3ccc4ncccc4c3)ccc2o1` [Compound 67], the IC50 was determined as 200 nM.
As for `CC[C@H](N)C(=O)NCCCc1cc2cc(C(=O)Nc3cccc4ccncc34)ccc2o1` [Compound 68], the IC50 was 710 nM.
Turning to `CC[C@H](N)C(=O)NCCCc1cc2cc(C(=O)N3CCCc4ccccc43)ccc2o1` [Compound 71], the IC50 was 2600 nM.
`CC[C@H](N)C(=O)NCCCc1cc2cc(C(=O)Nc3ccc4[nH]cnc4c3)ccc2o1` [Compound 72]: the IC50 amounted to 2400 nM.
The same measure for `CC[C@H](N)C(=O)NCCCc1cc2cc(C(=O)NC3CCNc4ccccc43)ccc2o1` (stereo partly drawn) [Compound 73]: 1800 nM.
For `CC[C@H](N)C(=O)NCCCc1cc2cc(C(=O)O)ccc2o1` [Compound 74], the IC50 is over 10000 nM.
For `CC[C@H](N)C(=O)NCCCc1cc2cc(C(=O)Nc3ccc(C)cc3)ccc2[nH]1` [Compound 75], the 50% inhibitory concentration (IC50) worked out at 1100 nM.
With `CC[C@H](N)C(=O)NCCCc1cc2cc(C(=O)Nc3ccc(OC)cc3)ccc2[nH]1` [Compound 77], the IC50 amounted to 350 nM.
As to `CC[C@H](N)C(=O)NCCCc1cc2cc(C(=O)Nc3ccc(C(C)(C)C)cc3)ccc2[nH]1` [Compound 78], the IC50 was 910 nM.
On to `CC[C@H](N)C(=O)NCCCc1cc2cc(C(=O)Nc3ccc(F)cc3)ccc2[nH]1` [Compound 79], for which the IC50 is 1300 nM.
As for `CC[C@H](N)C(=O)NCCCc1cc2cc(C(=O)Nc3ccc(C(C)C)cc3)ccc2[nH]1` [Compound 80], the IC50 is 680 nM.
For the compound `CC[C@H](N)C(=O)NCCCc1cc2cc(C(=O)Nc3ccc(F)c(F)c3)ccc2[nH]1` [Compound 81], the IC50 turned out to be 790 nM.
Turning to `CC[C@H](N)C(=O)NCCCc1cc2cc(C(=O)Nc3ccc(C)c(C)c3)ccc2[nH]1` [Compound 83], the IC50 was 560 nM.
With `CC[C@H](N)C(=O)NCCCc1cc2cc(C(=O)N3CCc4ccccc4C3)ccc2o1` [Compound 84], the IC50 turned out to be 1000 nM.
Consider `CC[C@H](N)C(=O)NCCCc1cc2cc(C(=O)Nc3cccc4[nH]cnc34)ccc2o1` [Compound 85], for which the IC50 was determined as 2400 nM.
On to `CC[C@H](N)C(=O)NCCCc1cc2cc(C(=O)Nc3ccc4c(c3)S(=O)(=O)C=C4)ccc2o1` [Compound 86], for which the IC50 came to 1000 nM.
For `CC[C@H](N)C(=O)NCCCc1cc2cc(C(=O)Nc3ccccc3F)ccc2[nH]1` [Compound 87], the IC50 turned out to be 2600 nM.
On to `CC[C@H](N)C(=O)NCCCc1cc2cc(C(=O)Nc3ccccc3OC)ccc2[nH]1` [Compound 88], for which the IC50 worked out at 1000 nM.
As for `CC[C@H](N)C(=O)NCCCc1cc2cc(C(=O)Nc3ccccc3C(C)C)ccc2[nH]1` [Compound 89], the IC50 is 1200 nM.
Take `CC[C@H](N)C(=O)NCCCc1cc2cc(C(=O)Nc3cccc(F)c3)ccc2[nH]1` [Compound 90]: the IC50 came out at 900 nM.
Regarding `CC[C@H](N)C(=O)NCCCc1cc2cc(C(=O)Nc3cccc(Cl)c3)ccc2[nH]1` [Compound 91], the IC50 stood at 800 nM.
As to `CC[C@H](N)C(=O)NCCCc1cc2cc(C(=O)Nc3cccc(OC)c3)ccc2[nH]1` [Compound 92], the IC50 amounted to 350 nM.
The result for `CC[C@H](N)C(=O)NCCCc1cc2cc(C(=O)Nc3cccc(C)c3)ccc2[nH]1` [Compound 93] reads 920 nM; that for `CC[C@H](N)C(=O)NCCCc1cc2cc(C(=O)Nc3cc(OC)cc(OC)c3)ccc2o1` [Compound 94], 1500 nM.
Regarding `CC[C@H](N)C(=O)NCCCc1cc2cc(C(=O)Nc3c(C)cccc3C)ccc2o1` [Compound 95], the IC50 worked out at 430 nM.
For the compound `CC[C@H](N)C(=O)NCCCc1cc2cc(-c3cc(OC)cc(OC)c3)ccc2[nH]1` [Compound 96], the IC50 amounted to 370 nM.
The result for `COc1ccc(NC(=O)c2ccc3[nH]c(CCCNC(=O)[C@@H](N)Cc4cccs4)cc3c2)cc1OC` [Compound 97] reads 24 nM.
For the compound `CC[C@H](N)C(=O)NCCCc1cc2cc(Oc3ccccc3)ccc2[nH]1` [Compound 98], the IC50 worked out at 480 nM.
`CC[C@H](N)C(=O)NCCCc1cc2cc(Oc3ccc(OC)c(OC)c3)ccc2[nH]1` [Compound 99, (S)-2-amino-N-(3-(5-(3,4-dimethoxyphenoxy)-1H-indol-2-yl)propyl)butanamide]: the IC50 was found to be 420 nM.
Turning to `CC[C@H](N)C(=O)NCCCc1cc2cc(-c3ccccc3)ccc2[nH]1` [Compound 100], the IC50 came to 520 nM.
Turning to `CC[C@H](N)C(=O)NCCCc1cc2cc(-c3ccc(F)cc3)ccc2[nH]1` [Compound 101], the IC50 was determined as 790 nM.
`CC[C@H](N)C(=O)NCCCc1cc2cc(-c3ccc(C(F)(F)F)cc3)ccc2[nH]1` [Compound 102]: the IC50 is 710 nM.
Turning to `CC[C@H](N)C(=O)NCCCc1cc2cc(-c3cccc(C(N)=O)c3)ccc2[nH]1` [Compound 103], the IC50 came out at 390 nM.
`CC[C@H](N)C(=O)NCCCc1cc2cc(-c3ccc(OC)cc3)ccc2[nH]1` [Compound 104]: the IC50 turned out to be 340 nM.
`CC[C@H](N)C(=O)NCCCc1cc2cc(-c3ccc(OC(F)(F)F)cc3)ccc2[nH]1` [Compound 105]: the IC50 turned out to be 860 nM.
As for `COc1ccc(NC(=O)c2ccc3[nH]c(CCCN(C)C(=O)[C@@H](N)Cc4cccs4)cc3c2)cc1OC` [Compound 106, (S)-2-(3-(2-amino-N-methyl-3-(thiophen-2-yl)propanamido)propyl)-N-(3,4-dimethoxyphenyl)-1H-indole-5-carboxamide], the IC50 was found to be 82 nM.
The same measure for `CC[C@H](N)C(=O)N(C)CCCc1cc2cc(C(=O)Nc3ccc(OC)c(OC)c3)ccc2[nH]1` [Compound 107]: 9000 nM.
With `CC[C@H](N)C(=O)NCCCc1cc2cc(-c3cc(C(F)(F)F)cc(C(F)(F)F)c3)ccc2[nH]1` [Compound 109], the IC50 came to 760 nM.
In the case of `CC[C@H](N)C(=O)NCCCc1cc2cc(-c3ccc(C(N)=O)cc3)ccc2[nH]1` [Compound 111], the concentration for half-maximal inhibition (IC50) was found to be 690 nM.
On to `CC[C@H](N)C(=O)NCCCc1cc2cc(-c3ccc4c(c3)OCO4)ccc2[nH]1` [Compound 112], for which the IC50 is 520 nM.
The same measure for `CC[C@H](N)C(=O)NCCCc1cc2cc(-c3cccc(S(N)(=O)=O)c3)ccc2[nH]1` [Compound 113]: 700 nM.
As for `CC[C@H](N)C(=O)NCCCc1cc2cc(-c3ccncc3)ccc2[nH]1` [Compound 114], the 50% inhibitory concentration (IC50) stood at 670 nM.
As to `CC[C@H](N)C(=O)NCCCc1cc2cc(-c3ccccc3C(N)=O)ccc2[nH]1` [Compound 116], the half-inhibitory concentration (IC50) worked out at 2000 nM.
`COc1ccc(NC(=O)c2ccc3[nH]c(CCCNC(=O)[C@@H](N)Cc4nccs4)cc3c2)cc1OC` [Compound 117, (S)-2-(3-(2-amino-3-(thiazol-2-yl)propanamido)propyl)-N-(3,4-dimethoxyphenyl)-1H-indole-5-carboxamide]: the IC50 came to 81 nM.
The same measure for `CCN(CCCc1cc2cc(C(=O)Nc3ccc(OC)c(OC)c3)ccc2[nH]1)C(=O)[C@@H](N)Cc1cccs1` [Compound 118]: 370 nM.

(Values after patent publication US8552032B2, “Bicyclic derivatives useful as inhibitors of DPP-1” (Janssen Pharmaceutica NV, priority 2009, dated 2013).)
